This experiment deals with fresh & PDX human tumors. The experiment is described as follows: EVOC drug dose calibration, cell death by H&E viability score. It counts as cell-based. From the text: Tissue acquisition and EVOC. Female NOD scid gamma (NSG) mice (4-6 months old) bearing PDX tumors were purchased from Jackson Laboratories. Mice arrived to the facility when the tumors had grown sufficiently to be apparent (approximately 60 mm^3) and were maintained until the maximal permitted tumor volume of 1,000 mm^3 was achieved. Mice were killed with CO2, and tumor tissues were removed and placed in ice-cold PBS. Tumors were sliced into 250-μm-thick slices using a vibratome (VF300, Precisionary Instruments) and placed in six-well plates on titanium grids (MA0036, Alabama R&D) with 4 ml of DMEM/F12 medium (supplemented with 5% fetal calf serum, 100 IU ml^−1 penicillin with 100 μg ml−1 streptomycin, 2.5 μg ml^−1 amphotericin B, […] gentamicin sulfate and 100 μl ml−1 l-glutamine). Tissue was cultured at 37° C. with 5% CO2 and 80% O2 on an orbital shaker (TOU-120N, MRC) at 70 r.p.m. The following day, tissue was treated with drugs as indicated for 96 h (medium was changed after 48 h and fresh drug was added), followed by formalin fixing and paraffin embedding after overnight fixation in 4% paraformaldehyde. Note that duplicates and triplicates were assigned randomly to mimic heterogeneity within the tumor tissue in vivo.
Human tumor tissue, either from primary colon cancer or metastatic lesions, was obtained from individuals at the time of operation or at the time of tissue core biopsy. After resection, the fresh tissue was placed in ice-cold PBS for immediate transfer to the lab for EVOC. Specimens were coded anonymously before their arrival to the lab. Forty-six individuals were enrolled in the study and had sufficient tumor volume at operation or accessible tumors for core biopsy to allow us to perform EVOC. In one individual, both primary and metastatic cancer tissue was obtained so that 47 samples in total were studied. In 14 individuals, there was either adenoma or not enough tumor tissue for evaluation. In an additional three individuals, the tissue was necrotic before slicing and EVOC. In one individual, the tissue culture was contaminated, and in one individual, the fixation was insufficient. Finally, 29 CRC primary or metastatic tumors from 28 individuals were analyzed by EVOC.
Histologic sections were assessed for viability by an independent blinded pathologist. Tissue viability was scored on a scale from 0 to 4, where 0 is less than 10% viable tissue and 4 is more than 90% viable tissue. Scores of 3, 2 and 1 correspond to tissue viability of 61-90%, 31-60% and 10-30%, respectively.
Determination of drug treatment concentrations. To determine the concentration of each drug to be used in the ex vivo screen, we first calibrated the effect of multiple concentrations of each drug on PDX CRC tumors. For the screens, we selected the doses that were minimally effective in killing tissue after 4 d of treatment as evaluated by H&E staining. […] In addition, when testing targeted therapies, the present inventors validated that the chosen drug concentrations were effective in inhibiting their targets. This was evaluated by immunohistochemical staining after 24 h of treatment (FIGS. 11A-C). Here again, the lowest drug concentration that was enough to inhibit the drug target was used.

Where [1] appears, read: EVOC, concentrations that demonstrate a difference in amount of cell death in individual patient tissues.

Where two headings read alike, the source gives them in different places.

For the compound `COc1ccc(C2=N[C@@H](c3ccc(Cl)cc3)[C@@H](c3ccc(Cl)cc3)N2C(=O)N2CCNC(=O)C2)c(OC(C)C)c1` [Nutlin], the “Range eliciting differential response” value under setting [1] fell in the range of 4 to 16 µM.
On to `Cl.Cl.O=S(=O)(NCCNC/C=C/c1ccc(Br)cc1)c1cccc2cnccc12` [H89 2HCl, H-89 dihydrochloride], for which, under setting [1], the “Range eliciting differential response” value was in the range of 1 to 16 µM.
As for `N.N.[Cl][Pt][Cl]` [Cisplatin], the “Range eliciting differential response” value under setting [1] is listed as 0.3-30^ uM.
Consider `O=C1[O][Pt]2([NH][C@@H]3CCCC[C@H]3[NH]2)[O]C1=O` [Oxaliplatin], for which the “Range eliciting differential response” value is 2 to 64 µM.
For `Cc1cc(Nc2cc(N3CCN(C)CC3)nc(Sc3ccc(NC(=O)C4CC4)cc3)n2)n[nH]1` [VX-680], the “Range eliciting differential response” value under setting [1] is 1 to 16 µM.

The values above are taken from US20240197746A1, “COMBINATION THERAPY WITH A MEK INHIBITOR AND A SRC INHIBITOR FOR THE TREATMENT OF COLORECTAL CANCER” (Yeda Research and Development Co. Ltd., priority 2021, published 2024).
